Data reported in BigSolDB 2.1.

O=C(O)c1cccnc1
solubility (mole fraction) (in DMSO, 293.56 K): 0.0597
solubility (mole fraction) (in DMSO, 303.38 K): 0.074
solubility (mole fraction) (in DMSO, 313.07 K): 0.0911
solubility (mole fraction) (in DMSO, 322.84 K): 0.109
solubility (mole fraction) (in DMSO, 332.36 K): 0.131
solubility (mole fraction) (in acetone, 285.46 K): 0.000733
solubility (mole fraction) (in acetone, 292.26 K): 0.00114
solubility (mole fraction) (in acetone, 296.8 K): 0.00137
solubility (mole fraction) (in acetone, 302.14 K): 0.00161
solubility (mole fraction) (in acetone, 307.1 K): 0.00231
solubility (mole fraction) (in acetone, 317.11 K): 0.00318
solubility (mole fraction) (in acetonitrile, 283.3 K): 7.12e-05
solubility (mole fraction) (in acetonitrile, 288.51 K): 0.00012
solubility (mole fraction) (in acetonitrile, 293.01 K): 0.00017
solubility (mole fraction) (in acetonitrile, 297.58 K): 0.000185
solubility (mole fraction) (in acetonitrile, 302.63 K): 0.000268
solubility (mole fraction) (in acetonitrile, 306.91 K): 0.000354
solubility (mole fraction) (in acetonitrile, 312.49 K): 0.000475
solubility (mole fraction) (in acetonitrile, 316.21 K): 0.000547
solubility (mole fraction) (in acetonitrile, 322.45 K): 0.000715
solubility (mole fraction) (in acetonitrile, 332.32 K): 0.00107
solubility (mole fraction) (in diethyl ether, 283.45 K): 0.000322
solubility (mole fraction) (in diethyl ether, 285.74 K): 0.000379
solubility (mole fraction) (in diethyl ether, 290.57 K): 0.000539
solubility (mole fraction) (in diethyl ether, 294.02 K): 0.000618
solubility (mole fraction) (in diethyl ether, 298.66 K): 0.000813
solubility (mole fraction) (in ethanol, 283.38 K): 0.00224
solubility (mole fraction) (in ethanol, 293.46 K): 0.00309
solubility (mole fraction) (in ethanol, 303.15 K): 0.00423
solubility (mole fraction) (in ethanol, 312.83 K): 0.00605
solubility (mole fraction) (in ethanol, 322.64 K): 0.00843
solubility (mole fraction) (in ethanol, 332.43 K): 0.0115
solubility (mole fraction) (in water, 283.59 K): 0.00172
solubility (mole fraction) (in water, 293.41 K): 0.00218
solubility (mole fraction) (in water, 303.03 K): 0.00281
solubility (mole fraction) (in water, 312.49 K): 0.00475
solubility (mole fraction) (in water, 312.97 K): 0.00365
solubility (mole fraction) (in water, 316.21 K): 0.00547
solubility (mole fraction) (in water, 322.45 K): 0.00715
solubility (mole fraction) (in water, 322.83 K): 0.00465
solubility (mole fraction) (in water, 332.01 K): 0.00586
solubility (mole fraction) (in water, 332.32 K): 0.0107
